Assay: Pharmacokinetic study in normal and arthritic model rats after oral administration of APR extract (UPLC-MS/MS of plasma)
Conditions: for Cmax / MRT last / half-life / Tmax: Sprague-Dawley, rat, po, 4.1 mL/kg; for Cmax: C max; for MRT last: MRT0-t; for Tmax: t max
Experimental: One hundred grams of the APR sample was extracted by reflux with 800 mL 50% ethanol/water (v/v) for 3 times (2 hours each time), then combined with the filtrate and concentrated under vacuum with heat, and the concentration of APR extract was 0.37 g/mL. All the sample solutions were stored at 4°C before analysis.
Twelve SD rats were randomly divided into two groups (n = 6) and named as the model group and the normal group, respectively. The arthritic model was established by injecting 0.1 mL of complete Freund's adjuvant in rats. As a control, 0.1 mL of saline was injected. After 7 days, the plasma levels of MDA and TNF-α in normal and model rats were measured by an enzyme-linked immunosorbent assay kit to determine whether the modeling was successful.
The ultrahigh performance liquid chromatography (Thermo Scientific™, Vanquish™, (Waltham, MA, USA)) was used for the chromatographic analysis. UPLC separation was achieved on a Thermo Hypersil GOLD C18 column (100 mm × 2.1 mm, 1.9 μm), which was maintained at 35°C.
The UPLC was interfaced to a Thermo TSQ QUANTIS triple quadrupole mass spectrometer and equipped with an electrospray ionization (ESI) probe working in positive and negative ion exchange scanning mode.
Acetonitrile was used as a precipitation solvent, and protein precipitation was used to handle with the plasma samples. […] Then, the supernatant was dried in a nitrogen environment at 45°C, and the remaining residue was recombined with 100 μL 50% methanol aqueous and vortex for 1 min. Finally, 2 μL supernatant was injected into the UPLC-MS/MS system for analysis.

[1] = plasma, arthritic model rats (complete Freund's adjuvant), oral APR extract 4.1 mL/kg, mean ± SD, n = 6
[2] = plasma, normal rats, oral APR extract 4.1 mL/kg, mean ± SD, n = 6
[3] = plasma, t 1/2, arthritic model rats (complete Freund's adjuvant), oral APR extract 4.1 mL/kg, mean ± SD, n = 6
[4] = plasma, t 1/2, normal rats, oral APR extract 4.1 mL/kg, mean ± SD, n = 6
[5] = oral APR, concentration-time curve
[6] = in vivo, arthritic model rats (complete Freund's adjuvant), oral APR extract 4.1 mL/kg, plasma, mean ± SD, n = 6
[7] = in vivo, normal rats, oral APR extract 4.1 mL/kg, plasma, mean ± SD, n = 6

Compound `COc1c2ccoc2cc2oc(=O)ccc12` [Bergapten, bergapten] has a Cmax [1] of 518 ± 42.9 ng/mL, a Cmax [2] of 383 ± 95.8 ng/mL and an MRT last [1] of 7.11 ± 0.09 h. It also gave an MRT last [2] of 9.4 ± 0.34 h, a half-life [3] of 7.16 ± 0.41 h and a half-life [4] of 9.41 ± 2.12 h. The Tmax [1] was 4.67 ± 1.03 h, the Tmax [2] was 3.67 ± 0.82 h and the “change of CL in model rats compared with normal rats” value (shortened to “change of CL in model rats”) (model vs normal rats, oral APR) was “decreased”. The “change of MRT in model rats compared with normal rats” value (from here on “change of MRT in model rats”) (model vs normal rats, oral APR) was “shortened”, the “time of first plasma peak after administration of APR” value [5] was 5 min and the “time of second plasma peak after administration of APR” value [5] was 4 h.

`C/C=C(/C)C(=O)OC(C)(C)[C@@H]1Cc2c(ccc3ccc(=O)oc23)O1` [Columbianadin, columbianadin] gave a Cmax [1] of 1500 ± 48.2 ng/mL, a Cmax [2] of 1680 ± 222 ng/mL and an MRT last [1] of 11.5 ± 0.87 h. It also gave an MRT last [2] of 12.3 ± 0.57 h, a half-life [3] of 16.5 ± 4.83 h and a half-life [4] of 16.4 ± 3.96 h. The Tmax [1] was 0.23 ± 0.03 h, the Tmax [2] was 0.23 ± 0.03 h and the “change of CL in model rats” value (model vs normal rats, oral APR) was “decreased”.

Compound `O=C(/C=C/c1ccc(O)c(O)c1)O[C@@H]1C[C@](O)(C(=O)O)C[C@@H](O)[C@H]1O` [Chlorogenic acid, chlorogenic acid] has a Cmax [1] of 2760 ± 264 ng/mL, an MRT last [1] of 8.68 ± 0.52 h and an MRT last [2] of 5.95 ± 0.28 h. It also gave a half-life [3] of 52 ± 13.2 h, a half-life [4] of 27.9 ± 14.8 h and a Tmax [1] of 0.45 ± 0.1 h. For the same compound, the Tmax [2] was 0.54 ± 0.36 h, the “change of AUC0-t in model rats compared with normal rats” value (from here on “change of AUC0-t in model rats”) (model vs normal rats, oral APR) was “increased” and the “change of Cmax in model rats compared with normal rats” value (“change of Cmax in model rats” for short) (model vs normal rats, oral APR) was “increased”. For the same compound, the “change of MRT in model rats” value (model vs normal rats, oral APR) was “longer”, the “change of t1/2 in model rats compared with normal rats” value (from here on “change of t1/2 in model rats”) (model vs normal rats, oral APR) was “longer” and the C max (normal rats, oral APR extract 4.1 mL/kg, plasma, mean ± SD, n = 6) was 1669.61 ± 25.80 ng/mL.

With `O=c1ccc2cc3ccoc3cc2o1` [Psoralen, psoralen] the Cmax [1] was 327 ± 42.5 ng/mL, the Cmax [2] was 210 ± 27.6 ng/mL and the MRT last [1] was 12.9 ± 0.22 h. For the same compound, the MRT last [2] was 14.3 ± 0.31 h, the half-life [3] was 5.98 ± 0.44 h and the half-life [4] was 9.8 ± 3.28 h. For the same compound, the Tmax [1] was 7.66 ± 0.81 h, the Tmax [2] was 8 ± 1.26 h and the “change of CL in model rats” value (model vs normal rats, oral APR) was “decreased”. For the same compound, the “change of MRT in model rats” value (model vs normal rats, oral APR) was “shortened”.

In the case of `O=C(C=Cc1ccc(O)c(O)c1)OC1CC(O)(C(=O)O)CC(OC(=O)C=Cc2ccc(O)c(O)c2)C1O` (stereo not drawn) [3,5-diCQA, isochlorogenic acid A], the Cmax [1] is reported as 405 ± 49.2 ng/mL, the Cmax [2] is reported as 293 ± 47.7 ng/mL and the MRT last [1] is reported as 18.8 ± 0.49 h. It also gave an MRT last [2] of 21.1 ± 0.68 h, a half-life [3] of 59.5 ± 17.2 h and a half-life [4] of 33.9 ± 14.3 h. For the same compound, the Tmax [1] was 0.18 ± 0.03 h, the Tmax [2] was 0.18 ± 0.03 h and the “change of AUC0-t in model rats” value (model vs normal rats, oral APR) was “decreased”. The “change of AUC0-∞ in model rats compared with normal rats” value (model vs normal rats, oral APR) was “increasing”, the “change of Cmax in model rats” value (model vs normal rats, oral APR) was “increasing” and the “change of t1/2 in model rats” value (model vs normal rats, oral APR) was “prolonging”.

For `O=C(/C=C/c1ccc(O)c(O)c1)O[C@H]1[C@H](O)C[C@](O)(C(=O)O)C[C@H]1O` [Cryptochlorogenic acid, cryptochlorogenic acid], the Cmax [1] was 189 ± 8.7 ng/mL, the Cmax [2] was 143 ± 4.63 ng/mL and the MRT last [1] was 19.5 ± 0.55 h. It also gave an MRT last [2] of 18.3 ± 0.46 h, a half-life [3] of 48.4 ± 10.5 h and a half-life [4] of 34.5 ± 17.6 h. The Tmax [1] was 0.45 ± 0.1 h, the Tmax [2] was 0.42 ± 0.12 h and the “change of AUC0-t in model rats” value (model vs normal rats, oral APR) was “increased”. The “change of Cmax in model rats” value (model vs normal rats, oral APR) was “increased”, the “change of MRT in model rats” value (model vs normal rats, oral APR) was “longer” and the “change of t1/2 in model rats” value (model vs normal rats, oral APR) was “longer”.

`O=C(C=Cc1ccc(O)c(O)c1)OC1CC(O)(C(=O)O)CC(O)C1O` (stereo not drawn) [Neochlorogenic acid] showed a Cmax [1] of 531 ± 24.1 ng/mL, a Cmax [2] of 420 ± 58.6 ng/mL and an MRT last [1] of 15.6 ± 0.26 h. It also gave an MRT last [2] of 15.6 ± 0.68 h, a half-life [3] of 31.8 ± 10.2 h and a half-life [4] of 39.9 ± 16.5 h. For the same compound, the Tmax [1] was 0.23 ± 0.03 h, the Tmax [2] was 0.2 ± 0.04 h and the “change in the pharmacokinetic parameters in normal and model rats” value (model vs normal rats, oral APR) was “no significant change”.

For `CC(C)=CCOc1c2ccoc2cc2oc(=O)ccc12` [Isoimperatorin, isoimperatorin], the Cmax [1] was 232 ± 21 ng/mL, the Cmax [2] was 224 ± 26.8 ng/mL and the MRT last [1] was 15.7 ± 0.65 h. The MRT last [2] was 15.1 ± 0.57 h, the half-life [3] was 26.8 ± 5.46 h and the half-life [4] was 26.9 ± 8.34 h. The Tmax [1] was 0.58 ± 0.2 h and the Tmax [2] was 0.58 ± 0.2 h.

With `CC(C)(O)[C@@H]1Cc2c(ccc3ccc(=O)oc23)O1` [Columbianetin, columbianetin] the Cmax [1] was 2220 ± 168 ng/mL, the Cmax [2] was 3120 ± 242 ng/mL and the MRT last [1] was 12.1 ± 0.2 h. The MRT last [2] was 13.3 ± 0.36 h, the half-life [3] was 6.07 ± 1.28 h and the half-life [4] was 6.04 ± 0.12 h. The Tmax [1] was 9 ± 1.09 h, the Tmax [2] was 9.67 ± 0.82 h and the “change of AUC0-t in model rats” value (model vs normal rats, oral APR) was “decreased”. For the same compound, the “change of AUC0-∞ in model rats compared with normal rats” value (model vs normal rats, oral APR) was “decreased”, the “change of CL in model rats” value (model vs normal rats, oral APR) was “increased” and the “change of Cmax in model rats” value (model vs normal rats, oral APR) was “decreased”. For the same compound, the “change of MRT in model rats” value (model vs normal rats, oral APR) was “shortened”.

For `O=C(/C=C/c1ccc(O)c(O)c1)O[C@@H]1[C@H](O)C[C@@](O)(C(=O)O)C[C@H]1OC(=O)/C=C/c1ccc(O)c(O)c1` [3,4-diCQA, isochlorogenic acid B], the Cmax [1] was 79.7 ± 7.11 ng/mL, the Cmax [2] was 85.7 ± 8.14 ng/mL and the MRT last [1] was 19.8 ± 0.4 h. The MRT last [2] was 21.2 ± 0.73 h, the half-life [3] was 84.5 ± 24.3 h and the half-life [4] was 58 ± 12 h. The Tmax [1] was 0.29 ± 0.1 h, the Tmax [2] was 0.29 ± 0.1 h and the “change of AUC0-t in model rats” value (model vs normal rats, oral APR) was “decreased”.

Compound `COc1ccc2ccc(=O)oc2c1CC=C(C)C` [Osthol, osthol] has a Cmax [1] of 4560 ± 272 ng/mL, a Cmax [2] of 3640 ± 286 ng/mL and an MRT last [1] of 6.94 ± 0.42 h. It also gave an MRT last [2] of 6.53 ± 0.29 h, a half-life [3] of 6.42 ± 0.69 h and a half-life [4] of 13.4 ± 0.51 h. For the same compound, the Tmax [1] was 0.91 ± 0.2 h, the Tmax [2] was 1.16 ± 0.4 h and the “change of CL in model rats” value (model vs normal rats, oral APR) was “decreased”.

Compound `COc1c2occc2cc2ccc(=O)oc12` [Xanthotoxin, xanthotoxin] has a Cmax [6] of 528 ± 35 ng/mL, a Cmax [7] of 554 ± 76 ng/mL and an MRT last [6] of 10.3 ± 0.51 h. The MRT last [7] was 10.7 ± 0.53 h, the half-life (in vivo, t 1/2, arthritic model rats (complete Freund's adjuvant), oral APR extract 4.1 mL/kg, plasma, mean ± SD, n = 6) was 14.2 ± 3.76 h and the half-life (in vivo, t 1/2, normal rats, oral APR extract 4.1 mL/kg, plasma, mean ± SD, n = 6) was 12.1 ± 1.73 h. For the same compound, the Tmax [6] was 3.33 ± 1.03 h and the Tmax [7] was 4.33 ± 0.82 h.
